This note sets out measurements from patent US20190071416A1, “COMPOUNDS FOR TREATMENT OF CANCER AND EPIGENETICS” (Agency For Science, Technology and Research, priority 2015, published 2019).

One may read the IC50 as the concentration that inhibits the measured activity by half.

In the assay the target is T1, SMYD3 (Homo sapiens, UniProt Q9H7B4).
T1 sequence (Q9H7B4 1-428): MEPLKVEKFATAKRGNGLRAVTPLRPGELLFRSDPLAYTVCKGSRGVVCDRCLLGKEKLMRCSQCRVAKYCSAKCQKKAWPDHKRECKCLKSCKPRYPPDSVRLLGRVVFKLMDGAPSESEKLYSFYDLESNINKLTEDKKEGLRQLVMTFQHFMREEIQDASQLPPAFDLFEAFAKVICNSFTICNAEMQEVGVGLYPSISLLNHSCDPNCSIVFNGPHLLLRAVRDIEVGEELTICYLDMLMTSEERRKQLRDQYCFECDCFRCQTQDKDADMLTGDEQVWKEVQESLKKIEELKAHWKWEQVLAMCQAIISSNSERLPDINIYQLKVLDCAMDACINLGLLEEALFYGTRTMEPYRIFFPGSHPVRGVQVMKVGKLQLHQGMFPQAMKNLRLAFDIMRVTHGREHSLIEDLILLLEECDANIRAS
Briefly: SMYD3 biochemical assay (MTase-Glo, MAP3K2 peptide substrate). The note with it: Table 3; MTase assay, MAP3K2 peptide substrate; read-out: IC50. Summed up: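 Luminescent readout of SAH production (coupled SAH→ATP conversion, MTase-Glo) after SMYD3 reacted 30 min at room temperature with 1.0 µM SAM and 10 µM MAP3K2 peptide, both final. Non-linear regression gave IC50 values.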

As for `CCCOC(=O)N1CCN(C(=O)c2ccc3c(Cl)cc(-c4ccc5nc(C)oc5c4)nc3c2)CC1` [B212, Propyl 4-(4-chloro-2-(2-methylbenzo[d]oxazol-6-yl)quinoline-7-carbonyl)piperazine-1-carboxylate], the IC50 was 240 nM.

As for `C[C@@H]1CN(C(=O)c2ccc3c(Cl)cc(-c4cc(F)c(O)c(F)c4)nc3c2)CCN1C(=O)OCCCF` [B235, 3-Fluoropropyl (R)-4-(4-chloro-2-(3,5-difluoro-4-hydroxyphenyl)quinoline-7-carbonyl)-2-methylpiperazine-1-carboxylate], the IC50 came to 230 nM.

With `CCCOC(=O)N1CCN(C(=O)c2ccc3c(Cl)cc(-c4ccnc5[nH]ccc45)nc3c2)CC1` [B221, Propyl 4-(4-chloro-2-(1H-pyrrolo[2,3-b]pyridin-4-yl)quinoline-7-carbonyl)piperazine-1-carboxylate], the IC50 amounted to 800 nM.

Turning to `CCCOC(=O)N1CCN(C(=O)c2ccc3c(Cl)c4c(nc3c2)CC(CCN)CC4)CC1` (stereo not shown) [A076, Propyl 4-(6-(2-aminoethyl)-9-chloro-5,6,7,8-tetrahydroacridine-3-carbonyl)piperazine-1-carboxylate], the IC50 is 160 nM.

As for `CCCOC(=O)N1CCN(C(=O)c2ccc3c(Cl)cc(-c4ccc(C(=O)NC)cc4)nc3c2)CC1` [B118, Propyl 4-(4-chloro-2-(4-(methylcarbamoyl)phenyl)quinoline-7-carbonyl)piperazine-1-carboxylate], the IC50 came out at 250 nM.

`Cn1ccc(-c2cc(Cl)c3ccc(C(=O)N4CCN(C(=O)c5cn(C6CC6)nn5)CC4)cc3n2)c1` [D003, (4-Chloro-2-(1-methyl-1H-pyrrol-3-yl)quinolin-7-yl)(4-(1-cyclopropyl-1H-1,2,3-triazole-4-carbonyl)piperazin-1-yl)methanone]: the IC50 stood at 25 nM.

`CCCOC(=O)N1CCN(C(=O)c2ccc3c(Cl)c(C)c(-c4cccc(F)c4F)nc3c2)CC1` [B030, Propyl 4-(4-chloro-2-(2,3-difluorophenyl)-3-methylquinoline-7-carbonyl)piperazine-1-carboxylate]: the IC50 was 5800 nM.

Consider `CCCOC(=O)N1CCN(C(=O)c2ccc3c(Cl)c4c(nc3c2)CC(Cc2ccccn2)CC4)CC1` (stereo not shown) [A103, Propyl 4-(9-chloro-6-(pyridin-2-ylmethyl)-5,6,7,8-tetrahydroacridine-3-carbonyl)piperazine-1-carboxylate], for which the IC50 was 390 nM.

`CCCOC(=O)N1CCN(C(=O)c2ccc3c(Cl)c4c(nc3c2)CCCC4)CC12CC2` [A036, Propyl 7-(9-chloro-5,6,7,8-tetrahydroacridine-3-carbonyl)-4,7-diazaspiro[2.5]octane-4-carboxylate]: the IC50 came out at 6700 nM.

For `CCCOC(=O)N1CCN(C(=O)c2ccc3c(Cl)c(C#N)c(C)nc3c2)CC1` [C006, Propyl 4-(4-chloro-3-cyano-2-methylquinoline-7-carbonyl)piperazine-1-carboxylate], the IC50 was 2800 nM.

Turning to `CCCOC(=O)N1CCN(C(=O)c2ccc3c(Cl)c4c(nc3c2)CC(CCN(C)C)CC4)C[C@H]1C` (stereo partly drawn) [A135, Propyl (2R)-4-(9-chloro-6-(2-(dimethylamino)ethyl)-5,6,7,8-tetrahydroacridine-3-carbonyl)-2-methylpiperazine-1-carboxylate], the IC50 is 75 nM.

For the compound `CCCOC(=O)N1CCN(C(=O)c2ccc3c(Cl)cc(-c4cnc5[nH]ccc5c4)nc3c2)C[C@H]1C` [B132, Propyl (R)-4-(4-chloro-2-(1H-pyrrolo[2,3-b]pyridin-5-yl)quinoline-7-carbonyl)-2-methylpiperazine-1-carboxylate], the IC50 amounted to 170 nM.

Consider `C#Cc1cccc(-c2cc(Cl)c3ccc(C(=O)N4CCN(C(=O)OCCC)CC4)cc3n2)c1` [B070, Propyl 4-(4-chloro-2-(3-ethynylphenyl)quinoline-7-carbonyl)piperazine-1-carboxylate], for which the IC50 amounted to 2100 nM.

In the case of `CCCOC(=O)N1CCN(C(=O)c2ccc3c(Cl)cc(-c4ccc(-n5ccnc5)cc4)nc3c2)C[C@H]1C` [B089, Propyl (R)-4-(2-(4-(1H-imidazol-1-yl)phenyl)-4-chloroquinoline-7-carbonyl)-2-methylpiperazine-1-carboxylate], the IC50 was 65 nM.

With `CCCNC(=O)N1CCN(C(=O)c2ccc3c(Cl)c4c(nc3c2)CCCC4)CC1` [A049, 4-(9-Chloro-5,6,7,8-tetrahydroacridine-3-carbonyl)-N-propylpiperazine-1-carboxamide], the IC50 is 6400 nM.

On to `CCCOC(=O)N1CCN(C(=O)c2ccc3c(Cl)c4c(nc3c2)CC(c2ncccc2C)CC4)[C@@H](C)C1` (stereo partly drawn) [A101, Propyl (3S)-4-(9-chloro-6-(3-methylpyridin-2-yl)-5,6,7,8-tetrahydroacridine-3-carbonyl)-3-methylpiperazine-1-carboxylate], for which the IC50 came out at 1700 nM.

As for `C[C@@H]1CN(C(=O)c2ccc3c(Cl)cc(C4CC4)nc3c2)CCN1C(=O)OCCF` [B259, 2-Fluoroethyl (R)-4-(4-chloro-2-cyclopropylquinoline-7-carbonyl)-2-methylpiperazine-1-carboxylate], the IC50 came to 2600 nM.

Take `CCCOC(=O)N1CCN(C(=O)c2ccc3c(Cl)c4c(nc3c2)CCCC4)[C@@H](C)C1` [A010, Propyl (S)-4-(9-chloro-5,6,7,8-tetrahydroacridine-3-carbonyl)-3-methylpiperazine-1-carboxylate]: the IC50 is 190 nM.

As for `CCCOC(=O)N1CCN(C(=O)c2ccc3c(Cl)cc(-c4cccc5[nH]cnc45)nc3c2)CC1` [B187, Propyl 4-(2-(1H-benzo[d]imidazol-4-yl)-4-chloroquinoline-7-carbonyl)piperazine-1-carboxylate], the IC50 amounted to 140 nM.

Take `CCCOC(=O)N1CCN(C(=O)c2ccc3c(Cl)cc(-c4ccc(CO)c(F)c4)nc3c2)CC1` [B257, Propyl 4-(4-chloro-2-(3-fluoro-4-(hydroxymethyl)phenyl)quinoline-7-carbonyl)piperazine-1-carboxylate]: the IC50 amounted to 150 nM.

For `CCCOC(=O)N1CCN(C(=O)c2ccc3c(Cl)c4c(nc3c2)CC(c2ccc(C)cn2)CC4)C[C@H]1C` (stereo partly drawn) [A131, Propyl (2R)-4-(9-chloro-6-(5-methylpyridin-2-yl)-5,6,7,8-tetrahydroacridine-3-carbonyl)-2-methylpiperazine-1-carboxylate], the IC50 came out at 110 nM.

Turning to `CCCOC(=O)N1CCN(C(=O)c2ccc3c(Cl)c4c(nc3c2)CC(c2ccnc(C)c2)CC4)C[C@H]1C` (stereo partly drawn) [A122, Propyl (2R)-4-(9-chloro-6-(2-methylpyridin-4-yl)-5,6,7,8-tetrahydroacridine-3-carbonyl)-2-methylpiperazine-1-carboxylate], the IC50 amounted to 120 nM.

Consider `CCCOC(=O)N1CCN(C(=O)c2ccc3c(Cl)c4c(nc3c2)CC(c2ccnc(C)c2)CC4)C[C@@H]1C` (stereo partly drawn) [A123, Propyl (2S)-4-(9-chloro-6-(2-methylpyridin-4-yl)-5,6,7,8-tetrahydroacridine-3-carbonyl)-2-methylpiperazine-1-carboxylate], for which the IC50 was 140 nM.

In the case of `CCCOC(=O)N1CCN(C(=O)c2ccc3c(Cl)c(C)c(-c4cccc(CN)c4)nc3c2)CC1` [B038, Propyl 4-(2-(3-(aminomethyl)phenyl)-4-chloro-3-methylquinoline-7-carbonyl)piperazine-1-carboxylate], the IC50 stood at 99 nM.

Regarding `CCCOC(=O)N1CCN(C(=O)c2ccc3c(Cl)cc(-c4cc[nH]c4)nc3c2)[C@@H](C)C1` [B254, Propyl (S)-4-(4-chloro-2-(1H-pyrrol-3-yl)quinoline-7-carbonyl)-3-methylpiperazine-1-carboxylate], the IC50 turned out to be 54 nM.

With `CCCOC(=O)N1CCN(C(=O)c2ccc3c(Cl)cc(C4(C)CC4)nc3c2)C[C@H]1C` [B109, Propyl (R)-4-(4-chloro-2-(1-methylcyclopropyl)quinoline-7-carbonyl)-2-methylpiperazine-1-carboxylate], the IC50 is 380 nM.

In the case of `CCCOC(=O)N1CCN(C(=O)c2ccc3c(Cl)c4c(nc3c2)CC(C#N)CC4)CC1` (stereo not shown) [A025, Propyl 4-(9-chloro-6-cyano-5,6,7,8-tetrahydroacridine-3-carbonyl)piperazine-1-carboxylate], the IC50 was 1900 nM.

Take `CCCOC(=O)N1CCN(C(=O)c2ccc3c(Cl)cc(-c4ccncc4)nc3c2)CC1` [B013, Propyl 4-(4-chloro-2-(pyridin-4-yl)quinoline-7-carbonyl)piperazine-1-carboxylate]: the IC50 turned out to be 950 nM.

For the compound `CCCOC(=O)N1CCN(C(=O)c2ccc3c(Cl)cc(-c4ccc5nn(C)cc5c4)nc3c2)C[C@@H]1C` [B170, Propyl (S)-4-(4-chloro-2-(2-methyl-2H-indazol-5-yl)quinoline-7-carbonyl)-2-methylpiperazine-1-carboxylate], the IC50 came to 260 nM.

In the case of `C#Cc1ccc(C2CCc3c(nc4cc(C(=O)N5CCN(C(=O)OCCC)[C@H](C)C5)ccc4c3Cl)C2)nc1` (stereo partly drawn) [A149, Propyl (2R)-4-(9-chloro-6-(5-ethynylpyridin-2-yl)-5,6,7,8-tetrahydroacridine-3-carbonyl)-2-methylpiperazine-1-carboxylate], the IC50 was 260 nM.

For the compound `CCCOC(=O)N1CCN(C(=O)c2ccc3c(Cl)cc(-c4ccc(OC)c(C)c4)nc3c2)CC1` [B099, Propyl 4-(4-chloro-2-(4-methoxy-3-methylphenyl)quinoline-7-carbonyl)piperazine-1-carboxylate], the IC50 came to 350 nM.
